# Inconclusive results are not listed. The source made the active and inactive calls.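 How the source made its calls: active means score of 100, meaning the red fluorescent reporter moved fully into the nucleus as with estrogen, or estrogen's effect was fully blocked; inactive means score of 0 or 50, meaning partial or no effect.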
# Target: Estrogen receptor beta (Homo sapiens) (UniProt Q92731)
# Test: ERbeta agonist-driven PIP3 reporter relocation, confirmation, orthogonal assay for ERbeta ligand project, imaging, Cos7 cells, ERbeta-GFP, PH-RFP reporter (AID 1218)
# Details: PIP3 translocation imaging, at 10 µM, stronger effect = higher value
# Chain of Estrogen receptor beta (Homo sapiens) (Q92731 whole entry, looked up): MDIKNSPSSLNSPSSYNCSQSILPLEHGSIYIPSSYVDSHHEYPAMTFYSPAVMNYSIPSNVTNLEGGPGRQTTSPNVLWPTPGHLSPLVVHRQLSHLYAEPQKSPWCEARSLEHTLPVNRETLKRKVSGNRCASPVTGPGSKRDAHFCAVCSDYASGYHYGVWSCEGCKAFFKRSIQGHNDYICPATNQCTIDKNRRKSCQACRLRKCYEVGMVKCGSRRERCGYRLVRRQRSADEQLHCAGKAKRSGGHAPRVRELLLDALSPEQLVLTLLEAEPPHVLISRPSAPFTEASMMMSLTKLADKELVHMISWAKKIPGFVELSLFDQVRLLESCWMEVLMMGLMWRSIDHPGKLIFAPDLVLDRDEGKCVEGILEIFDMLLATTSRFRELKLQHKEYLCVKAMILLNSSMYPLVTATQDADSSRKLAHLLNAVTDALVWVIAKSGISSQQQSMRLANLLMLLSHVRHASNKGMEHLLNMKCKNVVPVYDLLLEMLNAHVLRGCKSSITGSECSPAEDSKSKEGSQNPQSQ
row,Structure (SMILES),response score
1,Nc1ncnc2c1ncn2C1CCC(CO)C(O)C1 (stereo not drawn),50 (inactive)
2,Brc1cc2c(cc1C1Nc3ccccc3C3C=CCC31)OCO2 (stereo not drawn),0 (inactive)
3,COc1ccccc1N1CCN(C(=O)c2ccc3nc(-c4ccco4)c(-c4ccco4)nc3c2)CC1,100
4,O=C(O)c1cc(Cl)c2c(c1)[C@@H]1C=CC[C@@H]1[C@H](c1ccc(S(=O)(=O)N3CCOCC3)cc1)N2,50 (inactive)
5,Cc1cc(-c2nn3c(-c4ccccc4)nnc3s2)c2ccccc2n1,100
6,O=C(O)c1ccc2c(c1)C1C(Cl)C(Sc3ccccc3[N+](=O)[O-])CC1C(c1cccc([N+](=O)[O-])c1)N2 (stereo not drawn),0 (inactive)
7,COc1cccc(NS(=O)(=O)c2ccc3c(c2)C2C=CCC2C(c2ccc(C(=O)O)cc2)N3)c1 (stereo not drawn),50 (inactive)
8,Cc1cc(C)c2c(c1)[C@@H]1C=CC[C@@H]1[C@H](c1ccc(S(=O)(=O)N3CCOCC3)cc1)N2,100
